Source: patent US20190269666A1, “COMBINATION THERAPY WITH MERESTINIB AND ANTI-PD-L1 OR ANTI-PD-1 INHIBITORS FOR USE IN THE TREATMENT OF CANCER” (Eli Lilly and Company, priority 2016, published 2019)

Test system: 80-murine immune gene panel (mRNA expression) in CT26 tumors
Assay: Immuno-landscape analysis, QuantiGene mu-80 immune gene panel on CT26 tumors
Assay type: in vivo, mouse
Conditions: for Log2 (difference to vehicle control): CT26 tumors, Day 20
Method: Frozen tumor fragments of the samples collected on study Day 20 from 5 animals from each treatment arm (study S010516) are analyzed for gene expression of 80 markers using the Quantigene murine-80 panel (mu-80 immune panel #21681). Total RNA was isolated from lysed samples using the MAGMAX™ 96 Total RNA isolation kit (Life Technologies). Snap-frozen tumor fragments are lysed by adding 500 μL, of prepared lysis/binding buffer (MAGMAX™ 96 Total RNA isolation kit) with a single stainless steel bead (5 mm) and then homogenized on a TissueLyser (Qiagen) for 2 minutes at 25 Hz. 200 μL of lysate, along with 120 μL of 100% isopropanol and 40 μL of prepared magnetic beads mix are then transferred to a 96 deep well processing plate. A series of washes and a DNase incubation step are processed on the MAGMAX™ Express-96 Deep Well Magnetic Particle Processor (Life Technologies). RNA is eluted from the magnetic beads with […] of elution buffer after a final wash step. RNA concentration is determined spectrophotometrically to determine optical density at 260 and 280 nm and is then diluted to the final concentration of 25 ng/μl. Tissue expression of immune related genes is then measured using a QuantiGene® 2.0 Plex assay (Affymetrix) with a custom probe set (mu-80 immune panel #21681, Table 6). Four house-keeping-genes (HKG: Gusb, Hprt1, Ppib, Rps18) are used to normalize the gene expression data. Data are normalized and curated using the Genepattern script v28.8. Statistics and bioinformatics are used to analyze the data.
Five hundred ng of total RNA from samples being analyzed is added in duplicate to individual wells of a 96-well hybridization plate containing QuantiGene® magnetic capture beads, QuantiGene® probeset #21681, and QuantiGene® blocking reagent for a final volume of 100 μL. The hybridization plate is then sealed and incubated at 54° C. while agitated at 600 rpm for 16 hours. Samples are then transferred to a 96-well assay plate and beads are then sequentially hybridized first with 100 μl of QuantiGene® Pre-Amplifier Probe, then with QuantiGene® Amplifier Probe, and finally with QuantiGene® Label Probe (1 hour at 50° C. for each step, with 2-3 washes between each step using a magnetic capture plate). Streptavidin-conjugated R-Phycoerythrin (SAPE, Affymetrix) is added after the last hybridization step and incubated for 30 minutes at room temperature with agitation at 600 rpm. Samples are then analyzed on the FLEXMAP 3D® Luminex instrument (Luminex Corp). Beads (mRNA target) are identified with a red laser while the level of RNA is determined by measuring the mean fluorescence intensity (MFI) of Phycoerythrin with a green laser. Raw MFI data are then converted into relative gene expression for each gene (Normalized Adjusted Net MFI, background subtracted and normalized to 4 housekeeping genes), using a quality control analysis script with GenePattern (Broad Institute). […] Next, the lower limit of detection (LLOD) is determined (average background MFI+3 standard deviation (SD)). […] Relative gene expression is then calculated by normalizing for each gene's adjusted net MFI to the geometric mean of the MFI of selected housekeeping genes (HKG) including Hprt1, Gusb, Rps18 and Ppib, as shown in Table 6: (Sample Adjusted Net MFI/geometric mean Adjusted Net HKG MFI) multiplied by a scaling factor of 100. […]

## Cc1ccc(C(=O)Nc2ccc(Oc3cc4cnn(C)c4cc3-c3cn[nH]c3)c(F)c2)c(=O)n1-c1ccc(F)cc1 [merestinib, N-(3-fluoro-4-(1-methyl-6-(1H-pyrazol-4-yl)-1H-indazol-5-yloxy)phenyl)-1-(4-fluorophenyl)-6-methyl-2-oxo-1,2-dihydropyridine-3-carboxamide]
Gene Cdh1
  Log2 (difference to vehicle control): 1.01
Gene Cdh1, listed as Merestinib alone
  Log2 (difference to vehicle control): 1.0
Gene Tnfrsf
  Log2 (difference to vehicle control): 0.8
Of an 80-immune gene panel
  number of immune genes with no significant change vs vehicle control: 79
Of the 80 immune genes measured, tumors Day 20
  number of immune genes significantly different from vehicle control: 1
